# From patent US20200031848A1, “AR-V7 INHIBITORS” (Hoffmann-La Roche Inc., priority 2016, published 2020)
# How the values were obtained:
# [1] = target: T1, AR transcriptional activity (Homo sapiens, UniProt P10275, T878A); experiment: eGFP cellular AR transcription assay; type: cell-based; conditions: LNCaP eGFP cell line
# T1 construct: The LNCaP eGFP cell line was stably transfected with an androgen-responsive probasin-derived promoter fused to an eGFP reporter; endogenous in cells; host or cells: LNCaP eGFP (LN-ARR2PB-eGFP) human prostate cancer cells
# T1 sequence (P10275 1-920 T878A): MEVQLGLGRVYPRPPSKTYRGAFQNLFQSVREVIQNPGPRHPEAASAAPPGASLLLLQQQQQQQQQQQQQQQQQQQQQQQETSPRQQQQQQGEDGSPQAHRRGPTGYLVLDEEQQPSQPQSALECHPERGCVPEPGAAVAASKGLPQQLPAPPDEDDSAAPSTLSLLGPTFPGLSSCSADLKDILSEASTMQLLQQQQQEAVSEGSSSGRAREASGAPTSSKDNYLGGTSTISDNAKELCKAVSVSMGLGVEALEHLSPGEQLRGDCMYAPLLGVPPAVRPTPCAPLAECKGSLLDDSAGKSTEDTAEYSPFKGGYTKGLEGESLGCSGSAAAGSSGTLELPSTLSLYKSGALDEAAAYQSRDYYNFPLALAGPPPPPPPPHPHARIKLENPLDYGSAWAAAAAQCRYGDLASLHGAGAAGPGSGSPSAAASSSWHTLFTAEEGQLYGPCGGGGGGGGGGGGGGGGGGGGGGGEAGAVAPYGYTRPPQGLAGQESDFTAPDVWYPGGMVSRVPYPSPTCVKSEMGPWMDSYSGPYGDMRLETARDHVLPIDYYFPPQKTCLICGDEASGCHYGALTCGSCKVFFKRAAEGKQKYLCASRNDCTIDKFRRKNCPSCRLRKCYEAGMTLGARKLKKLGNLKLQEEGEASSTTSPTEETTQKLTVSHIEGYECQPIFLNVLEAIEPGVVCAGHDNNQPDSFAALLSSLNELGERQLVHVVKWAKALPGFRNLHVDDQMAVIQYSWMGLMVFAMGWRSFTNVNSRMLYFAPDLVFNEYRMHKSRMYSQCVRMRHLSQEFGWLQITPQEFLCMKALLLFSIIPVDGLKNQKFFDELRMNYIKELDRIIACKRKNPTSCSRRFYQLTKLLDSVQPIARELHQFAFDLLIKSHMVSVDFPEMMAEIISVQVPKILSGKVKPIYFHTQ
# From the text: The DNA-binding domain is an attractive target for inhibition of AR dimerization and/or DNA binding. In silico computational drug discovery methods were used to conduct a virtual screen of >3 million purchasable lead-like compounds from the ZINC database (Irwin, J. et al.^11) to identify potential DBD binders. The in silico methods included large-scale docking, in-site rescoring and consensus voting procedures. It will be understood by a person of skill that COOH and NR2 may include the corresponding ions, for example carboxylate ions and ammonium ions, respectively. Alternatively, where the ions are shown, a person of skill in the art will appreciate that the counter ion may also be present. Furthermore, it will be appreciated by a person of skill that other moieties may include the corresponding ions, and where the ions are shown, a person of skill in the art will appreciate that the counter ion may also be present. […] Where the % inhibition, eGFP IC50 or the PSA IC50 has no value given, this may be because no measurement was taken or the value was not calculated, in the case of the % inhibition. In vitro identification of AR inhibitors targeting AR DBD The selected compounds were assessed with a non-destructive eGFP assay that quantifies levels of AR transcriptional activity, were identified (table below).
# 1. Cell Culture: LNCaP and PC3 human prostate cancer cells were obtained from American Type Culture Collection (ATCC, Manassas, Va.) and grown in RPMI 1640 medium supplemented with 5% fetal bovine serum (FBS) (Invitrogen). The LNCaP eGFP cell line was stably transfected with an androgen-responsive probasin-derived promoter fused to an eGFP reporter (LN-ARR2PB-eGFP) using a lentiviral approach, and were grown in phenol-red-free RPMI 1640 supplemented with 5% CSS. In-house developed MDV3100-resistant LNCaP cells were cultured in RPMI 1640 supplemented with 5% FBS and 10 μM MDV3100. All cells were maintained at 37° C. in 5% CO2.
# 2. eGFP cellular AR transcription assay: The AR transcriptional activity was assayed as previously described (Tavassoli, P., et al.^12).
# in vitro = conditions: for microsomal CLint at 2 μM: pH 7.4
# Description: Microsomal incubations were carried out in 96-well plates in 5 aliquots of 40 μL each (one for each time point). […] Control incubations were performed replacing the NADPH-cofactor system with PBS. […] Incubations were performed in duplicates. Five time points over 40 minutes had been analyzed. The reactions were stopped by adding 12 volumes of 90% acetonitrile-water to incubation aliquots, followed by protein sedimentation by centrifuging at 5500 rpm for 5 minutes. Supernatants were analyzed using the HPLC system coupled with tandem mass spectrometer. The elimination constant (kel), half-life (t1/2) and intrinsic clearance (Clint) were determined in plot of […] versus time, using linear regression analysis: […]
SMILES,IC50 [1] [nM],"microsomal CLint at 2 μM (in vitro; human, microsomes) [µL/min/mg]",other results
"CSc1nc(Br)cn1-c1csc(N2[C@@H]3CC[C@H]2COC3)n1 [Example 16, (1R,5S)-8-[4-(4-bromo-2-methylsulfanyl-imidazol-1-yl)thiazol-2-yl]-3-oxa-8-azabicyclo[3.2.1]octane]",140,,
"Brc1cn(-c2csc(N3CCOC4(CCCC4)C3)n2)c(Br)n1 [Example 18, 9-[4-(2,4-dibromoimidazol-1-yl)thiazol-2-yl]-6-oxa-9-azaspiro[4.5]decane]",200,100,"""No cofactor"" control: role of CYP450 in metabolism (in vitro; NADPH-cofactor system replaced with PBS): not determined just by CYP450 activity; metabolic stability in human hepatic microsomal test system (in words) (in vitro; human hepatic microsomes): low stability"
"Clc1ncn(-c2csc(N3[C@@H]4CC[C@H]3COC4)n2)c1Cl [Example 19, (1R,5S)-8-[4-(4,5-dichloroimidazol-1-yl)thiazol-2-yl]-3-oxa-8-azabicyclo[3.2.1]octane]",320,42,
"Clc1ncn(-c2csc(N3C[C@H]4CC[C@@H](C3)O4)n2)c1Cl [Example 20, (1S,5R)-3-[4-(4,5-dichloroimidazol-1-yl)thiazol-2-yl]-8-oxa-3-azabicyclo[3.2.1]octane]",250,40,
"Clc1ncn(-c2csc(N3C[C@H]4CC[C@@H](C3)O4)n2)c1Br [Example 21, (1R,5S)-3-[4-(5-bromo-4-chloro-imidazol-1-yl)thiazol-2-yl]-8-oxa-3-azabicyclo[3.2.1]octane]",300,6,"metabolic stability in human hepatic microsomal test system (in words) (in vitro; human, microsomes): high metabolic stability"
"Brc1cn(-c2csc(N3CCOC4(CCOCC4)C3)n2)c(Br)n1 [Example 28, 4-[4-(2,4-dibromoimidazol-1-yl)thiazol-2-yl]-1,9-dioxa-4-azaspiro[5.5]undecane]",3120,,
"CC(C)(C)C1CN(c2nc(-n3cc(Br)nc3Br)cs2)CC(C(C)(C)C)O1 (stereo not drawn) [Example 34, 2,6-ditert-butyl-4-[4-(2,4-dibromoimidazol-1-yl)thiazol-2-yl]morpholine]",,,eGFP IC50 [1]: inact.
"Clc1ncn(-c2csc(N3CCOCC3)n2)c1Br [Example 44, 4-[4-(5-bromo-4-chloro-imidazol-1-yl)thiazol-2-yl]morpholine]",,196,
"Clc1c(Br)ncn1-c1csc(N2CCOCC2)n1 [Example 45, 4-[4-(4-bromo-5-chloro-imidazol-1-yl)thiazol-2-yl]morpholine]",,185,
"Clc1cn(-c2csc(N3CCOCC3)n2)cn1 [Example 47, 4-[4-(4-chloroimidazol-1-yl)thiazol-2-yl]morpholine]",970,,
"Brc1cn(-c2csc(N3CCOCC3)n2)cn1 [Example 48, 4-[4-(4-bromoimidazol-1-yl)thiazol-2-yl]morpholine]",,81,
"N#Cc1nc(Br)cn1-c1csc(N2CCOCC2)n1 [Example 51, 4-bromo-1-(2-morpholinothiazol-4-yl)imidazole-2-carbonitrile]",1600,,
"Cc1ncn(-c2csc(N3CCOCC3)n2)c1C [Example 52, 4-[4-(4,5-dimethylimidazol-1-yl)thiazol-2-yl]morpholine]",3650,,
"Brc1ncn(-c2csc(N3CCOC4(COC4)C3)n2)c1Br [Example 65, 8-(4-(4,5-dibromo-1H-imidazol-1-yl)thiazol-2-yl)-2,5-dioxa-8-azaspiro[3.5]nonane]",4470,,

# More lines, main results first:
IC50 [1] [nM],"microsomal CLint at 2 μM (in vitro; human, microsomes) [µL/min/mg]",SMILES,other results
1180,,"Brc1cn(-c2csc(N3C[C@@H]4C[C@H]3CO4)n2)c(Br)n1 [Example 11, (1S,4S)-5-[4-(2,4-dibromoimidazol-1-yl)thiazol-2-yl]-2-oxa-5-azabicyclo[2.2.1]heptane]",
1320,,"Brc1ncn(-c2csc(N3C[C@@H]4C[C@H]3CO4)n2)c1Br [Example 12, (1S,4S)-5-[4-(4,5-dibromoimidazol-1-yl)thiazol-2-yl]-2-oxa-5-azabicyclo[2.2.1]heptane]",
110,,"Brc1cn(-c2csc(N3C[C@H]4CC[C@@H](C3)O4)n2)c(Br)n1 [Example 13, (1S,5R)-3-[4-(2,4-dibromoimidazol-1-yl)thiazol-2-yl]-8-oxa-3-azabicyclo[3.2.1]octane]",
120,,"Brc1cn(-c2csc(N3CCOCC3C3CC3)n2)c(Br)n1 (stereo not drawn) [Example 14, 3-cyclopropyl-4-[4-(2,4-dibromoimidazol-1-yl)thiazol-2-yl]morpholine]",
130,51,"CCC1COCCN1c1nc(-n2cc(Br)nc2Br)cs1 (stereo not drawn) [Example 15, 4-[4-(2,4-dibromoimidazol-1-yl)thiazol-2-yl]-3-ethyl-morpholine]",
190,41,"CC1CN(c2nc(-n3cc(Br)nc3Br)cs2)C(C)CO1 (stereo not drawn) [Example 17, 4-[4-(2,4-dibromoimidazol-1-yl)thiazol-2-yl]-2,5-dimethyl-morpholine]",
400,52,"CC1CN(c2nc(-n3cc(Br)nc3Br)cs2)CCO1 (stereo not drawn) [Example 22, 4-[4-(2,4-dibromoimidazol-1-yl)thiazol-2-yl]-2-methyl-morpholine]",
1700,,"FC(F)(F)C1CN(c2nc(-n3cc(Br)nc3Br)cs2)CCO1 (stereo not drawn) [Example 25, 4-[4-(2,4-dibromoimidazol-1-yl)thiazol-2-yl]-2-(trifluoromethyl)morpholine]",
1530,,"Brc1cn(-c2csc(N3CCOC4CCCC43)n2)c(Br)n1 (stereo not drawn) [Example 26, 4-[4-(2,4-dibromoimidazol-1-yl)thiazol-2-yl]-3,4a,5,6,7,7a-hexahydro-2H-cyclopenta[b][1,4]oxazine]",
1610,,"Brc1cn(-c2csc(N3CC4CC3CO4)n2)c(Br)n1 (stereo not drawn) [Example 27, 5-[4-(2,4-dibromoimidazol-1-yl)thiazol-2-yl]-2-oxa-5-azabicyclo[2.2.1]heptane]",
3150,,"Brc1cn(-c2csc(N3CCOC4CCCCC43)n2)c(Br)n1 (stereo not drawn) [Example 29, 4-[4-(2,4-dibromoimidazol-1-yl)thiazol-2-yl]-2,3,4a,5,6,7,8,8a-octahydrobenzo[b][1,4]oxazine]",
6650,,"CC(C)C1CN(c2nc(-n3cc(Br)nc3Br)cs2)CCO1 (stereo not drawn) [Example 30, 4-[4-(2,4-dibromoimidazol-1-yl)thiazol-2-yl]-2-isopropyl-morpholine]",
8150,,"Brc1cn(-c2csc(N3CCOC(c4ccccc4)C3)n2)c(Br)n1 (stereo not drawn) [Example 31, 4-[4-(2,4-dibromoimidazol-1-yl)thiazol-2-yl]-2-phenyl-morpholine]",
27400,,"Brc1cn(-c2csc(N3CCOC(Cc4ccccc4)C3)n2)c(Br)n1 (stereo not drawn) [Example 32, 2-benzyl-4-[4-(2,4-dibromoimidazol-1-yl)thiazol-2-yl]morpholine]",
170,,"Brc1cn(-c2csc(N3CCOC(c4cccs4)C3)n2)c(Br)n1 (stereo not drawn) [Example 33, 4-[4-(2,4-dibromoimidazol-1-yl)thiazol-2-yl]-2-(2-thienyl)morpholine]",
